Experimental data: ChEMBL document CHEMBL1909046, “DrugMatrix in vitro pharmacology data”

Key:
Leukotriene C4 synthase = biological target: T1, Leukotriene C4 synthase (Cavia porcellus, UniProt A6XA80); assay type: tissue-based, Lung;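 also: enzyme inhibition assay of leukotriene C4 synthase, using LTA4 as the substrate; in other assays of this panel Not Active means under 50% inhibition at 10 µM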
T1 sequence (A6XA80 whole entry): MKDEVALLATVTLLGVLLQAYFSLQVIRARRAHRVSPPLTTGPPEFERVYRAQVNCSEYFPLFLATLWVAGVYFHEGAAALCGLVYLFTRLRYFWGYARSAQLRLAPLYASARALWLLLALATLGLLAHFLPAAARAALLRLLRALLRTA

Neutrophil elastase = biological target: T2, Neutrophil elastase (Homo sapiens, UniProt P08246); assay type: tissue-based;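 also: inhibition of neutrophil elastase enzyme activity, measured with a p-nitroanilide-linked peptide substrate; in other assays of this panel Not Active means under 50% inhibition at 10 µM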
T2 sequence (P08246 whole entry): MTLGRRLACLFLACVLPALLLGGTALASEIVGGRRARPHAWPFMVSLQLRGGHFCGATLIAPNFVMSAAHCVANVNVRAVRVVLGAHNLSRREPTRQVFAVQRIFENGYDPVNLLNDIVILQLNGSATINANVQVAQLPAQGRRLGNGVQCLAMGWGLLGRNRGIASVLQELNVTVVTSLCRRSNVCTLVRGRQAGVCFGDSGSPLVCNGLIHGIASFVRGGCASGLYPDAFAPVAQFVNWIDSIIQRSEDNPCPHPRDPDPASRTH

[1] = biological target: T3, Cholecystokinin receptor type A (Homo sapiens, UniProt P32238); assay type: cell membranes, Membrane; settings: 1321-n1; also: in other assays of this panel Not Active means under 50% inhibition at 10 µM
T3 sequence (P32238 whole entry): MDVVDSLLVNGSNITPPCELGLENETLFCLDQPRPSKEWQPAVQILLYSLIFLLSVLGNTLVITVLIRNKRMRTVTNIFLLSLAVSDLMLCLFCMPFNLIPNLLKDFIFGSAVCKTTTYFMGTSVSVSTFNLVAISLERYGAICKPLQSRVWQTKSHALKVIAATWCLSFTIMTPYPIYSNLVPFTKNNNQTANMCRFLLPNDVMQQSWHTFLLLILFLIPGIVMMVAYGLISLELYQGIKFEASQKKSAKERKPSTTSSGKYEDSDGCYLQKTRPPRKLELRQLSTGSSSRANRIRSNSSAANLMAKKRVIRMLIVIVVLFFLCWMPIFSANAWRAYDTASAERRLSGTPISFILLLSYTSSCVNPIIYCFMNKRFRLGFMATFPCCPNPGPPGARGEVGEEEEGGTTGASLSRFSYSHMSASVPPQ

[2] = biological target: Beta-2 adrenergic receptor (Homo sapiens, UniProt P07550); assay: DRUGMATRIX: Adrenergic beta2 radioligand binding (ligand: [3H] CGP-12177); assay type: cell membranes, CHO, Membrane; settings: cho; Not Active = under 50% inhibition at 10 µM
Thromboxane-A synthase = biological target: T4, Thromboxane-A synthase (Homo sapiens, UniProt P24557); assay: biochemical; assay type: tissue-based, Platelet; settings: platelet;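 also: enzyme inhibition assay with PGH2 supplied as substrate; in other assays of this panel Not Active means under 50% inhibition at 10 µM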
T4 sequence (P24557 whole entry): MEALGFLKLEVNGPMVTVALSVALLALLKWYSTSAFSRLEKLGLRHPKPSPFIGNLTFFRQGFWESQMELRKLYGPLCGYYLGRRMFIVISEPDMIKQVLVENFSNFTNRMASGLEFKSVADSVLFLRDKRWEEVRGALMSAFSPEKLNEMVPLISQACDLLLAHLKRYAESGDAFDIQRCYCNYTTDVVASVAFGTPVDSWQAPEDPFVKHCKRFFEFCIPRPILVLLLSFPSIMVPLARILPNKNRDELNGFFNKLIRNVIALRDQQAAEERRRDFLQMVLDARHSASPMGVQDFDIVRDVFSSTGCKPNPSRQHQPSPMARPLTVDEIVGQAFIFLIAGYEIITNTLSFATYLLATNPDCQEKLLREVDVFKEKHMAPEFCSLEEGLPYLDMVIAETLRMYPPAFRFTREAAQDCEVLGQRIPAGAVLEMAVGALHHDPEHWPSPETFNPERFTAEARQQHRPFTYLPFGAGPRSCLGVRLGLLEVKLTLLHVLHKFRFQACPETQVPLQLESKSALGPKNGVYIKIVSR

B2 bradykinin receptor = biological target: T5, B2 bradykinin receptor (Homo sapiens, UniProt P30411); assay type: cell membranes, Membrane; settings: chem-1; also: in other assays of this panel Not Active means under 50% inhibition at 10 µM
T5 sequence (P30411 whole entry): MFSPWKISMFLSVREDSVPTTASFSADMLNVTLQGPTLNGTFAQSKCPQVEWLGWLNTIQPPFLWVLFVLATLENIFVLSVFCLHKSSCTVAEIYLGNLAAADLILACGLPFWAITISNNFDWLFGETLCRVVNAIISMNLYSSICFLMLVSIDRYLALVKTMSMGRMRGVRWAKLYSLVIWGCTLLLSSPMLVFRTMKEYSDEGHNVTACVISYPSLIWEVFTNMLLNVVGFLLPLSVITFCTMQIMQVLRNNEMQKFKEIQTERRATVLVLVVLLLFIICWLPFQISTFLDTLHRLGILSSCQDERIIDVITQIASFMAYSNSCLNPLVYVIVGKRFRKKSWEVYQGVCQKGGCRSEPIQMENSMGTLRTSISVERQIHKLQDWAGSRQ

Cytochrome P450 1A2 = biological target: T6, Cytochrome P450 1A2 (Homo sapiens, UniProt P05177); settings: bti-tn-5b1-4; also: in other assays of this panel Not Active means under 50% inhibition at 10 µM
T6 sequence (P05177 whole entry): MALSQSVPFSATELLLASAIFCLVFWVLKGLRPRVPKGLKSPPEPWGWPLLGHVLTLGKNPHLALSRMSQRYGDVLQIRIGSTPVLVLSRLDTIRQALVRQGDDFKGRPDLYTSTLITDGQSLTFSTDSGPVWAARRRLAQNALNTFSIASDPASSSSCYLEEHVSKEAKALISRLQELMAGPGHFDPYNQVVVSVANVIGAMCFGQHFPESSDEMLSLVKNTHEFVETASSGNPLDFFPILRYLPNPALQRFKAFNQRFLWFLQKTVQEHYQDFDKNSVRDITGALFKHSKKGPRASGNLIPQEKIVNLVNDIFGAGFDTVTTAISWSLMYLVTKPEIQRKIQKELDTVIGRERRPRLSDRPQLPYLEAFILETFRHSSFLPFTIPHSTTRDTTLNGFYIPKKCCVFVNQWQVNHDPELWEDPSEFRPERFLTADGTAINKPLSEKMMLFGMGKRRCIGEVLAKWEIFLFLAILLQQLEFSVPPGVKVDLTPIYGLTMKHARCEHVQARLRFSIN

Beta-2 adrenergic receptor, sequence (P07550 whole entry): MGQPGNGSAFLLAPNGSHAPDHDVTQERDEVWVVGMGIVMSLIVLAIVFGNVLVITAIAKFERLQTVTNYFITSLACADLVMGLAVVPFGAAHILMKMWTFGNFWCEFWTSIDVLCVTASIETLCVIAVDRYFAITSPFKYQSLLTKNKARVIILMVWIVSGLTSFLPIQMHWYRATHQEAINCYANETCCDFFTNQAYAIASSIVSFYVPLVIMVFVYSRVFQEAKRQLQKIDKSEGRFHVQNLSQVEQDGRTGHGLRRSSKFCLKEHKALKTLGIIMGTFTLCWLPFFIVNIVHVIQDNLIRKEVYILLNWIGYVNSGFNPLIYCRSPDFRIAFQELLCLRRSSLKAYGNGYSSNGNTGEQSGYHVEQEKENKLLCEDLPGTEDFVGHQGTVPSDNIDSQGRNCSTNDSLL

C[C@@H]1CC[C@@]2(OC1)O[C@H]1[C@@H](O)[C@H]3[C@@H]4CC[C@H]5C[C@@H](O[C@@H]6O[C@H](CO)[C@H](O[C@@H]7O[C@H](CO)C(O)[C@H](O[C@@H]8OC[C@@H](O)[C@H](O)[C@H]8O)[C@H]7O[C@@H]7O[C@H](CO)[C@H](O)[C@H](O[C@@H]8O[C@H](CO)[C@@H](O)[C@H](O)[C@H]8O)[C@H]7O)[C@H](O)[C@H]6O)[C@H](O)C[C@]5(C)[C@H]4CC[C@]3(C)[C@H]1[C@@H]2C (stereo partly drawn) [DIGITONIN]
Not Active: IC50 (Leukotriene C4 synthase) | IC50 (Neutrophil elastase) | IC50 [1] | IC50 [2] | IC50 (Thromboxane-A synthase) | IC50 (B2 bradykinin receptor) | IC50 (Cytochrome P450 1A2) | Ki (Cytochrome P450 1A2)

OC(CCCN1CCCCC1)(c1ccccc1)c1ccccc1 [DIPHENIDOL]
Not Active: IC50 (Leukotriene C4 synthase) | IC50 (Neutrophil elastase) | IC50 [1] | IC50 [2] | IC50 (Thromboxane-A synthase) | IC50 (B2 bradykinin receptor) | IC50 (Cytochrome P450 1A2) | Ki (Cytochrome P450 1A2)

C[C@H]1O[C@@H](n2cc(F)c(=O)[nH]c2=O)[C@H](O)[C@@H]1O [DOXIFLURIDINE]
Not Active: IC50 (Leukotriene C4 synthase) | IC50 (Neutrophil elastase) | IC50 [1] | IC50 [2] | IC50 (Thromboxane-A synthase) | IC50 (B2 bradykinin receptor) | IC50 (Cytochrome P450 1A2) | Ki (Cytochrome P450 1A2)

Cn1c(=O)c2c(ncn2CC(O)CO)n(C)c1=O (stereo not drawn) [DYPHYLLINE]
Not Active: IC50 (Leukotriene C4 synthase) | IC50 (Neutrophil elastase) | IC50 [1] | IC50 [2] | IC50 (Thromboxane-A synthase) | IC50 (B2 bradykinin receptor) | IC50 (Cytochrome P450 1A2) | Ki (Cytochrome P450 1A2)

CC[C@H]1CN2CCc3cc(OC)c(OC)cc3[C@@H]2C[C@@H]1C[C@H]1NCCc2cc(OC)c(OC)cc21 [EMETINE]
Not Active: IC50 (Leukotriene C4 synthase) | IC50 (Neutrophil elastase) | IC50 [1] | IC50 [2] | IC50 (Thromboxane-A synthase) | IC50 (B2 bradykinin receptor) | IC50 (Cytochrome P450 1A2) | Ki (Cytochrome P450 1A2)

COC(=O)CCc1ccc(OCC(O)CNC(C)C)cc1 (stereo not drawn) [ESMOLOL]
Not Active: IC50 (Leukotriene C4 synthase) | IC50 (Neutrophil elastase) | IC50 [1] | IC50 [2] | IC50 (Thromboxane-A synthase) | IC50 (B2 bradykinin receptor) | IC50 (Cytochrome P450 1A2) | Ki (Cytochrome P450 1A2)

CCC1(C)CC(=O)NC1=O (stereo not drawn) [ETHOSUXIMIDE]
Not Active: IC50 (Leukotriene C4 synthase) | IC50 (Neutrophil elastase) | IC50 [1] | IC50 [2] | IC50 (Thromboxane-A synthase) | IC50 (B2 bradykinin receptor) | IC50 (Cytochrome P450 1A2) | Ki (Cytochrome P450 1A2)

C#C[C@]1(OC(C)=O)CC[C@H]2[C@@H]3CCC4=C[C@@H](OC(C)=O)CC[C@@H]4[C@H]3CC[C@@]21C [ETHYNODIOL DIACETATE]
Not Active: IC50 (Leukotriene C4 synthase) | IC50 (Neutrophil elastase) | IC50 [1] | IC50 [2] | IC50 (Thromboxane-A synthase) | IC50 (B2 bradykinin receptor) | IC50 (Cytochrome P450 1A2) | Ki (Cytochrome P450 1A2)

C=CCc1ccc(O)c(OC)c1 [EUGENOL]
Not Active: IC50 (Leukotriene C4 synthase) | IC50 (Neutrophil elastase) | IC50 [1] | IC50 [2] | IC50 (Thromboxane-A synthase) | IC50 (B2 bradykinin receptor) | IC50 (Cytochrome P450 1A2) | Ki (Cytochrome P450 1A2)

CC(C(=O)O)c1cccc(Oc2ccccc2)c1 (stereo not drawn) [FENOPROFEN]
Not Active: IC50 (Leukotriene C4 synthase) | IC50 (Neutrophil elastase) | IC50 [1] | IC50 [2] | IC50 (Thromboxane-A synthase) | IC50 (B2 bradykinin receptor) | IC50 (Cytochrome P450 1A2) | Ki (Cytochrome P450 1A2)

CC(C)(C)NC(=O)[C@H]1CC[C@H]2[C@@H]3CC[C@H]4NC(=O)C=C[C@]4(C)[C@H]3CC[C@]12C [FINASTERIDE]
Not Active: IC50 (Leukotriene C4 synthase) | IC50 (Neutrophil elastase) | IC50 [1] | IC50 [2] | IC50 (Thromboxane-A synthase) | IC50 (B2 bradykinin receptor) | IC50 (Cytochrome P450 1A2) | Ki (Cytochrome P450 1A2)

Nc1ccn([C@@H]2O[C@H](CO)[C@@H](O)C2(F)F)c(=O)n1 [GEMCITABINE]
Not Active: IC50 (Leukotriene C4 synthase) | IC50 (Neutrophil elastase) | IC50 [1] | IC50 [2] | IC50 (Thromboxane-A synthase) | IC50 (B2 bradykinin receptor) | IC50 (Cytochrome P450 1A2) | Ki (Cytochrome P450 1A2)

N=C(N)NC(=O)Cc1c(Cl)cccc1Cl [GUANFACINE]
Not Active: IC50 (Leukotriene C4 synthase) | IC50 (Neutrophil elastase) | IC50 [1] | IC50 [2] | IC50 (Thromboxane-A synthase) | IC50 (B2 bradykinin receptor) | IC50 (Cytochrome P450 1A2) | Ki (Cytochrome P450 1A2)

NNc1nncc2ccccc12 [HYDRALAZINE]
Not Active: IC50 (Leukotriene C4 synthase) | IC50 (Neutrophil elastase) | IC50 [1] | IC50 [2] | IC50 (Thromboxane-A synthase) | IC50 (B2 bradykinin receptor) | IC50 (Cytochrome P450 1A2) | Ki (Cytochrome P450 1A2)

COC1=C(OC)C(=O)C(CCCCCCCCCCO)=C(C)C1=O [IDEBENONE]
Not Active: IC50 (Leukotriene C4 synthase) | IC50 (Neutrophil elastase) | IC50 [1] | IC50 [2] | IC50 (Thromboxane-A synthase) | IC50 (B2 bradykinin receptor) | IC50 (Cytochrome P450 1A2) | Ki (Cytochrome P450 1A2)

CC(C)NNC(=O)c1ccncc1 [IPRONIAZID]
Not Active: IC50 (Leukotriene C4 synthase) | IC50 (Neutrophil elastase) | IC50 [1] | IC50 [2] | IC50 (Thromboxane-A synthase) | IC50 (B2 bradykinin receptor) | IC50 (Cytochrome P450 1A2) | Ki (Cytochrome P450 1A2)

Cc1c(OCC(F)(F)F)ccnc1C[S+]([O-])c1nc2ccccc2[nH]1 (stereo not drawn) [LANSOPRAZOLE]
Not Active: IC50 (Leukotriene C4 synthase) | IC50 (Neutrophil elastase) | IC50 [1] | IC50 [2] | IC50 (Thromboxane-A synthase) | IC50 (B2 bradykinin receptor) | IC50 (Cytochrome P450 1A2) | Ki (Cytochrome P450 1A2)

COc1ccc2[nH]cc(CCNC(C)=O)c2c1 [MELATONIN]
Not Active: IC50 (Leukotriene C4 synthase) | IC50 (Neutrophil elastase) | IC50 [1] | IC50 [2] | IC50 (Thromboxane-A synthase) | IC50 (B2 bradykinin receptor) | IC50 (Cytochrome P450 1A2) | Ki (Cytochrome P450 1A2)

NC(=O)C[S+]([O-])C(c1ccccc1)c1ccccc1 (stereo not drawn) [MODAFINIL]
Not Active: IC50 (Leukotriene C4 synthase) | IC50 (Neutrophil elastase) | IC50 [1] | IC50 [2] | IC50 (Thromboxane-A synthase) | IC50 (B2 bradykinin receptor) | IC50 (Cytochrome P450 1A2) | Ki (Cytochrome P450 1A2)

CCN(CC)CCOCCC1=CCC2CC1C2(C)C (stereo not drawn) [MYRTECAINE]
Not Active: IC50 (Leukotriene C4 synthase) | IC50 (Neutrophil elastase) | IC50 [1] | IC50 [2] | IC50 (Thromboxane-A synthase) | IC50 (B2 bradykinin receptor) | IC50 (Cytochrome P450 1A2) | Ki (Cytochrome P450 1A2)

O=C(O)c1cccnc1Nc1cccc(C(F)(F)F)c1 [NIFLUMIC ACID]
Not Active: IC50 (Leukotriene C4 synthase) | IC50 (Neutrophil elastase) | IC50 [1] | IC50 [2] | IC50 (Thromboxane-A synthase) | IC50 (B2 bradykinin receptor) | IC50 (Cytochrome P450 1A2) | Ki (Cytochrome P450 1A2)
